≈ marks a conversion by molar mass, not a printed value.
Tests used:
anti-Bombesin antibody = assay: ELISA for bispecificity using anti-Bombesin capture antibody and DTPA-HRP; assay type: binding; conditions: 1 μg/ml, captured by anti-Bombesin antibody
Method: Intact 6C31H3 anti-DTPA antibody was modified with 100× molar excess iminothiolane. Bombesin was modified with 24× molar excess N-hydroxy-succinimide ester of bromoacetic acid (as described in Varvarigou et al., Can. Biother. Radiopharm. 19:219-229 (2004); and Bernatowicz et al., Anal. Biochem. 155:95-102 (1986)). […] The antibody activity and Bombesin concentrations were assessed by ELISA using either DTPA-BSA or anti-Bombesin antibody and compared to standard curves. Specifically, the Bombesin concentration of serial dilutions of Bom-BiSpCx starting at 1 μg/ml was determined by ELISA using Bombesin (1 μg/ml) and 6C31H3 antibody (1 μg/ml) as controls. Bombesin of the Bom-BiSpCx (1 μg/ml) was captured by an anti-Bombesin antibody, resulting in a positive reaction with DTPA-HRP (which is specific for the […] antibody of the Bom-BiSpCx).

[1] = test system: BT-20 human mammary tumor cells; assay: In vitro assay for tumorotoxicity in BT-20 human mammary tumor cells; assay type: cell-based; conditions: BT-20 cells, 10 μg/ml, 3 hrs; compared with Dox-DPG and Dox-DPG-BiSpAb
Method: BT-20 human mammary tumor cells were grown in 10% Fetal Clone DEME. When the cells reached about 80% confluence, the cells were harvested by trypsin digestion and replated in […] culture plates at 400,000 cells per well. After 24 hrs, the culture media was removed and in one set of wells was replaced with media containing 10 μg/ml of 2C5-6C31H3 BiSpAb (prepared as described in Example 1). In two other sets, the media was replaced with media lacking 2C5-6C31H3 BiSpAb. Each set was prepared in triplicate. After 24 hrs of incubation, the medium was removed and washed 3× with medium lacking antibody. Medium containing 10 μg/ml of free Dox was then added to a medium-only set of wells, and media containing 10 μg/ml of Dox-DPG was added to one set with and one set without 2C5-6C31H3 BiSpAb. The cultures were incubated for either 3 hrs, 12 hrs, or 24 hrs, at which times the cells in the media were collected and viability was determined by counting cells with Tryptan Blue exclusion criteria in a hemocytometer.

PC-3 cancer cells = assay: In vitro therapeutic efficacy in PC-3 cell cultures; assay type: cell-based, human; conditions: 10 μg Bom-BiSpCx 24 hr then 10 μg/ml Dox-DPG, or 10 μg/ml free Dox; Trypan blue
Method: PC-3 cancer cells were grown in 10% fetal clone-DMEM until they reached about 80% confluence. The cells were then harvested by trypsin digestion and re-plated in 6 well culture plates at 40,000 cells per well. After attaining 70% confluency, the medium was replaced with or without 10 μg of Bom-BiSpCx (prepared as described in Example 3) in triplicates to quadruplicates. After 24 hr of incubation at 37° C. in 5% CO2, the media was changed to media containing 10 μg/ml of free Dox or Dox-DPG (prepared as described in Example 2). The cells were further incubated at 37° C. for 0-3 hr, 3-12 hr, or 12-24 hr, at which time the cells in each well were collected and the number of live and dead cells determined by Trypan blue exclusion test in a Hemocytometer. Negative control cells were treated with monospecific 2C5 antibody, […] antibody, Bombesin, or culture media alone. Positive control cells were treated with 10 μg/ml of free Dox. Each assay was repeated at least 3 times in triplicate or quadruplicate.

[2] = test system: H9C2 embryonic rat cardiocytes; assay: IC50 in H9C2 embryonic cardiocytes, Trypan Blue exclusion; assay type: cell-based; conditions: 24 hr
Method: H9C2 embryonic rat cardiocytes cultured in 10% Fetal Clone DMEM (F-DMEM) at 37° C. in 25 ml sterile culture flasks until 90% confluent in triplicate were dissociated by Trypsin digestion. The cells were washed in F-DMEM. Aliquots of 40,000 H9C2 cells in 1 ml F-DMEM were delivered to each well of a 6 well culture plate. After incubation for 24 hr, the culture medium was removed and fresh medium containing 2.5 μg/ml, 5 μg/ml, 10 μg/ml, 15 μg/ml, and 30 μg/ml of Dox-DPG or free Dox were added and incubated at 37° C. for 24 hr. Cell death was assessed by Trypan Blue exclusion test.

SMILES	Reaction with DTPA-HRP, O.D. 490 nm (anti-Bombesin antibody)	Tumor cell killing, early stage of incubation [1]	Death of PC-3 cancer cells (PC-3 cancer cells) [%]	IC50 (cardiotoxicity) [2] [µg/mL]
O=C(O)CN(CCN(CC(=O)O)CC(=O)O)CCN(CC(=O)O)CC(=O)O [DTPA, diethylene triaminepentaacetic acid]	0.0007±0.0025			
COc1cccc2c1C(=O)c1c(O)c3c(c(O)c1C2=O)C[C@@](O)(C(=O)CO)C[C@@H]3O[C@H]1C[C@H](N)[C@H](O)[C@H](C)O1 [doxorubicin]		more effective in killing tumor cells	68.6	1.02 (≈ 1.88 µM)
